According to PubChem BioAssay AID2060504 (Molecular Pharmacology Branch, DTP, NCI, 2025):
Blank lines part the entries; values can stand above or below the compound they belong to.

System: 636577-100-R-J1-PDC complex spheroid viability
Experiment: Anticancer human tumor 636577-100-R-J1-PDC patient-derived endometrial adenocarcinoma cell line growth inhibition [GQUAD]
Settings: for IC50: curve of first compound; for viability, T/C: stronger effect = lower value
Procedure, shortened: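 Tumor cells were grown as complex spheroids with HUVEC endothelial cells and mesenchymal stem cells as stroma. G-quadruplex stabilizers were combined with targeted agents over half-log dilutions from near the clinical Cmax, or from 10 microM.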

[1] = second compound 0.0316 µM, first compound 0.0316 µM
[2] = second compound 0.0316 µM, first compound 0.1 µM
[3] = second compound 0.0316 µM, first compound 0.316 µM
[4] = second compound 0.0316 µM, first compound 1 µM
[5] = second compound 0.0316 µM, first compound 3.16 µM
[6] = second compound 0.0316 µM, first compound 10 µM
[7] = second compound 0.1 µM, first compound 0.0316 µM
[8] = second compound 0.1 µM, first compound 0.1 µM
[9] = second compound 0.1 µM, first compound 0.316 µM
[10] = second compound 0.1 µM, first compound 1 µM
[11] = second compound 0.1 µM, first compound 3.16 µM
[12] = second compound 0.1 µM, first compound 10 µM
[13] = second compound 0.316 µM, first compound 0.0316 µM
[14] = second compound 0.316 µM, first compound 0.1 µM
[15] = second compound 0.316 µM, first compound 0.316 µM
[16] = second compound 0.316 µM, first compound 1 µM
[17] = second compound 0.316 µM, first compound 3.16 µM
[18] = second compound 0.316 µM, first compound 10 µM
[19] = second compound 1 µM, first compound 0.0316 µM
[20] = second compound 1 µM, first compound 0.1 µM
[21] = second compound 1 µM, first compound 0.316 µM
[22] = second compound 1 µM, first compound 1 µM
[23] = second compound 1 µM, first compound 3.16 µM
[24] = second compound 1 µM, first compound 10 µM
[25] = second compound 3.16 µM, first compound 0.0316 µM
[26] = second compound 3.16 µM, first compound 0.1 µM
[27] = second compound 3.16 µM, first compound 0.316 µM
[28] = second compound 3.16 µM, first compound 1 µM
[29] = second compound 3.16 µM, first compound 3.16 µM
[30] = second compound 3.16 µM, first compound 10 µM
[31] = second compound 10 µM, first compound 0.0316 µM
[32] = second compound 10 µM, first compound 0.1 µM
[33] = second compound 10 µM, first compound 0.316 µM
[34] = second compound 10 µM, first compound 1 µM
[35] = second compound 10 µM, first compound 3.16 µM
[36] = second compound 10 µM, first compound 10 µM
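Also: viability read after seven days of drug exposure.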
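For viability, T/C in this document: luminescence signal used as a proxy for viable cells; 100% = DMSO vehicle control wells.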

IC50 (second compound 0.0316 µM): < 31.6 nM | IC50 (second compound 0.1 µM): < 31.6 nM | IC50 (second compound 0.316 µM): < 31.6 nM | IC50 (second compound 1 µM): < 31.6 nM | IC50 (second compound 3.16 µM): < 31.6 nM | IC50 (second compound 10 µM): < 31.6 nM
SMILES: C=CC(=O)N1CCN(c2nc(=O)n(-c3c(C)ccnc3C(C)C)c3nc(-c4c(O)cccc4F)c(F)cc23)C(C)C1 (stereo unspecified) + Cc1cnc(CNC(=O)c2c(=O)c3ccc(N4CCCN(C)CC4)nc3n3c2sc2ccccc23)cn1
viability, T/C [1]: 41.6% | viability, T/C [2]: 45.5% | viability, T/C [3]: 43.1% | viability, T/C [4]: 45.7% | viability, T/C [5]: 51% | viability, T/C [6]: 43% | viability, T/C [7]: 28.8% | viability, T/C [8]: 30.6% | viability, T/C [9]: 31.7% | viability, T/C [10]: 33.1% | viability, T/C [11]: 35.1% | viability, T/C [12]: 28.1% | viability, T/C [13]: 24.7% | viability, T/C [14]: 25.1% | viability, T/C [15]: 25.2% | viability, T/C [16]: 29.9% | viability, T/C [17]: 31.1% | viability, T/C [18]: 28% | viability, T/C [19]: 24.6% | viability, T/C [20]: 22.8% | viability, T/C [21]: 24.1% | viability, T/C [22]: 25.4% | viability, T/C [23]: 21.7% | viability, T/C [24]: 25.7% | viability, T/C [25]: 24% | viability, T/C [26]: 21.5% | viability, T/C [27]: 25.9% | viability, T/C [28]: 27.9% | viability, T/C [29]: 29.5% | viability, T/C [30]: 26.8% | viability, T/C [31]: 21.5% | viability, T/C [32]: 22.9% | viability, T/C [33]: 23.9% | viability, T/C [34]: 22.1% | viability, T/C [35]: 26.7% | viability, T/C [36]: 25.2%

IC50 (second compound 0.0316 µM): < 31.6 nM | IC50 (second compound 0.1 µM): < 31.6 nM | IC50 (second compound 0.316 µM): < 31.6 nM | IC50 (second compound 1 µM): < 31.6 nM | IC50 (second compound 3.16 µM): < 31.6 nM | IC50 (second compound 10 µM): < 31.6 nM
SMILES: CC1COCCN1c1cc(-c2ccnn2C)c2ccnc(-c3ccn[nH]3)c2n1 (stereo unspecified) + Cc1cnc(CNC(=O)c2c(=O)c3ccc(N4CCCN(C)CC4)nc3n3c2sc2ccccc23)cn1
viability, T/C [1]: 31.9% | viability, T/C [2]: 20.2% | viability, T/C [3]: 18.4% | viability, T/C [4]: 9.61% | viability, T/C [5]: 5.71% | viability, T/C [6]: 3.77% | viability, T/C [7]: 22.7% | viability, T/C [8]: 19.2% | viability, T/C [9]: 17.2% | viability, T/C [10]: 11.2% | viability, T/C [11]: 6.18% | viability, T/C [12]: 3.47% | viability, T/C [13]: 15.1% | viability, T/C [14]: 19.7% | viability, T/C [15]: 17.7% | viability, T/C [16]: 12.5% | viability, T/C [17]: 6.51% | viability, T/C [18]: 2.82% | viability, T/C [19]: 17.9% | viability, T/C [20]: 18.9% | viability, T/C [21]: 15.6% | viability, T/C [22]: 14.7% | viability, T/C [23]: 7.08% | viability, T/C [24]: 3.42% | viability, T/C [25]: 18.9% | viability, T/C [26]: 17.4% | viability, T/C [27]: 16.8% | viability, T/C [28]: 14% | viability, T/C [29]: 7.38% | viability, T/C [30]: 3.36% | viability, T/C [31]: 16.8% | viability, T/C [32]: 16.6% | viability, T/C [33]: 17.2% | viability, T/C [34]: 10.1% | viability, T/C [35]: 6.54% | viability, T/C [36]: 3.1%

IC50 (second compound 0.0316 µM): < 31.6 nM | IC50 (second compound 0.1 µM): < 31.6 nM | IC50 (second compound 0.316 µM): < 31.6 nM | IC50 (second compound 1 µM): < 31.6 nM | IC50 (second compound 3.16 µM): < 31.6 nM | IC50 (second compound 10 µM): < 31.6 nM
SMILES: CC1COCCN1c1cc(C2(O)CC3CCC(C2)O3)c2cnn(-c3ccn[nH]3)c2n1 (stereo unspecified) + Cc1cnc(CNC(=O)c2c(=O)c3ccc(N4CCCN(C)CC4)nc3n3c2sc2ccccc23)cn1
viability, T/C [1]: 28.1% | viability, T/C [2]: 18.8% | viability, T/C [3]: 14.3% | viability, T/C [4]: 6.98% | viability, T/C [5]: 2.58% | viability, T/C [6]: 1.35% | viability, T/C [7]: 21% | viability, T/C [8]: 17.8% | viability, T/C [9]: 15.2% | viability, T/C [10]: 6.8% | viability, T/C [11]: 3.54% | viability, T/C [12]: 1.24% | viability, T/C [13]: 17.7% | viability, T/C [14]: 16.3% | viability, T/C [15]: 13.8% | viability, T/C [16]: 7.53% | viability, T/C [17]: 3.12% | viability, T/C [18]: 1.5% | viability, T/C [19]: 15% | viability, T/C [20]: 14.2% | viability, T/C [21]: 11.4% | viability, T/C [22]: 6.81% | viability, T/C [23]: 3.62% | viability, T/C [24]: 1.25% | viability, T/C [25]: 16.1% | viability, T/C [26]: 16.7% | viability, T/C [27]: 13.5% | viability, T/C [28]: 8.88% | viability, T/C [29]: 3.75% | viability, T/C [30]: 1.52% | viability, T/C [31]: 15.6% | viability, T/C [32]: 15.8% | viability, T/C [33]: 14% | viability, T/C [34]: 6.65% | viability, T/C [35]: 2.67% | viability, T/C [36]: 0.14%
